This data set concerns Human umbilical vein endothelial cells (HUVECs). As to the kind of experiment: Cell viability by CCK-8 assay. It counts as cell-based. To be noted: 24 h, NapFF 10.0-200.0 μM, silk fibroin 0.1-2.0%, FIG. 9. How it is done: The cell viability was detected by CCK-8 assay. Human umbilical vein endothelial cells (HUVECs) were dispersed in a 96-well plate (at a cell concentration of 4000 cells/well) and cultured for 24 h in a 5% CO2 atmosphere at 37° C. The previous medium was replaced with a medium containing different concentrations of NapFF (10.0 μM, 20.0 μM, 50.0 μM, 100.0 μM, and 200.0 μM) and silk fibroin solutions (0.1%, 0.2%, 0.5%, 1.0%, and 2.0%), which was in turn replaced with a CCK-8 solution after 24 h. Finally, the optical density value (OD value) of the solution at 450 nm was measured on a microplate reader. The cell viability is expressed as percentage of the number of control (untreated) cells. The cell viability of the control group was set to 100% by default, and all experiments were performed in 5 replications.
(In general: Formazan colour is commonly taken as a measure of viable cells.)

Molecules are shown by their SMILES.

`O=C(Cc1ccc2ccccc2c1)N[C@@H](Cc1ccccc1)C(=O)N[C@@H](Cc1ccccc1)C(=O)O` [NapFF, 2-naphthaleneacetic acid-phenylalanine-phenylalanine]: the “Cytotoxicity (cell viability, CCK-8)” value is listed as “good biocompatibility”.

The values above are taken from patent US11560455B2, “Method for rapid gelation of silk fibroin solution under physiological conditions” (SOOCHOW UNIVERSITY, priority 2017, dated 2023).
